# Data published in patent US10618918B2, “Substituted boronic acids as antimicrobials” (priority 2015, dated 2020).
# Where two headings read alike, the source gives them in different places.
# Assays:
# KP1086 OXA-48 = assay: Biapenem potentiation (MPC@1), strain KP1086 OXA-48; type: cell-based; conditions: minimum BLI concentration inhibiting growth with biapenem 1 μg/mL; tested up to 40 μg/mL
# Protocol: (§1) Biapenem was present in the test medium at 1 μg/mL. […] Table 3 summarizes the BLI potency of biapenem potentiation (MPC@1) for two strains overexpressing class A (KPC) and class D (OXA-48) carbapenemases. Biapenem MIC for each strain is also shown.
# ECL1002 [1] = assay: Tigemonam potentiation (MPC@4), strain ECL1002; type: cell-based; conditions: minimum BLI concentration inhibiting growth with tigemonam 4 μg/mL; tested up to 40 μg/mL
# ECL1002 [2] = assay: Aztreonam potentiation (MPC@4), strain ECL1002; conditions: minimum BLI concentration inhibiting growth with aztreonam 4 μg/mL; tested up to 40 μg/mL
# KP1009 CTX-M-15 [3] = assay: Aztreonam potentiation (MPC@4), strain KP1009 CTX-M-15; conditions: minimum BLI concentration inhibiting growth with aztreonam 4 μg/mL; tested up to 40 μg/mL
# ec308 SHV-5 [4] = assay: Tigemonam potentiation (MPC@4), strain ec308 SHV-5; type: cell-based; conditions: minimum BLI concentration inhibiting growth with tigemonam 4 μg/mL; tested up to 40 μg/mL
# KP1005 CTX-M-14 [5] = assay: Tigemonam potentiation (MPC@4), strain KP1005 CTX-M-14
# ec308 SHV-5 [6] = assay: Aztreonam potentiation (MPC@4), strain ec308 SHV-5; conditions: minimum BLI concentration inhibiting growth with aztreonam 4 μg/mL; tested up to 40 μg/mL
# EC1010 CMY-6 [7] = assay: Aztreonam potentiation (MPC@4), strain EC1010 CMY-6
# KP1005 CTX-M-14 [8] = assay: Aztreonam potentiation (MPC@4), strain KP1005 CTX-M-14; conditions: minimum BLI concentration inhibiting growth with aztreonam 4 μg/mL; tested up to 40 μg/mL
# AB1053 OXA-72 = assay: Meropenem potentiation (MPC@8), strain AB1053 OXA-72; type: cell-based, Acinetobacter baumannii; conditions: minimum BLI concentration inhibiting growth with meropenem 8 μg/mL; tested up to 20 μg/mL
# KP1010 SHV-12 [9] = assay: Aztreonam potentiation (MPC@4), strain KP1010 SHV-12
# [10] = biological target: purified class A, C and D enzymes (β-lactamases) (Klebsiella pneumoniae, UniProt Q9F663); assay: biochemical; type: biochemical
# [11] = biological target: purified class A, C and D enzymes (β-lactamases) (Klebsiella pneumoniae, UniProt Q6XEC0); assay: biochemical; type: biochemical
# [12] = biological target: T1, purified class A, C and D enzymes (β-lactamases) (Acinetobacter baumannii, UniProt Q9L4P2); assay: biochemical; type: biochemical; conditions: purified OXA-23; nitrocefin (NCF) as reporter substrate
# T1 construct: rows headed: Ki (OXA-23, NCF), uM; other: purified OXA-23; nitrocefin (NCF) as reporter substrate
# [13] = biological target: T2, purified class A, C and D enzymes (β-lactamases) (UniProt P0AD64, L31Q/G234S/E235K, species not given); assay: biochemical; type: biochemical
# T2 construct: Ki (SHV-12, NCF), uM; other: purified SHV-12; nitrocefin (NCF) as reporter substrate
# T2 sequence (P0AD64 1-286 L31Q/G234S/E235K): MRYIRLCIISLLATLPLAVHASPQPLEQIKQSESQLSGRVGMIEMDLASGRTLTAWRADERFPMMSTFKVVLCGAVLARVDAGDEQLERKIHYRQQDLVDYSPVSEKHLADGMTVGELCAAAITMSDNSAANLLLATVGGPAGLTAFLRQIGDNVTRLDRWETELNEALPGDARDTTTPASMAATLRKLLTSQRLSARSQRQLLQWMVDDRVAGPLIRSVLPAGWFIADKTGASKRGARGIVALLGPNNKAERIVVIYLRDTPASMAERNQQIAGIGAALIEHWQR
# [14] = biological target: purified class A, C and D enzymes (β-lactamases) (UniProt P62593, R162S/E237K, species not given); assay: biochemical; type: biochemical; conditions: purified TEM-10; nitrocefin (NCF) as reporter substrate
# [15] = biological target: purified class A, C and D enzymes (β-lactamases) (Escherichia coli, UniProt Q9L5C7); assay: biochemical; type: biochemical
# ec302 TEM-10 [16] = assay: Tigemonam potentiation (MPC@4), strain ec302 TEM-10; type: cell-based; conditions: minimum BLI concentration inhibiting growth with tigemonam 4 μg/mL; tested up to 40 μg/mL
# EC1010 CMY-6 [17] = assay: Tigemonam potentiation (MPC@4), strain EC1010 CMY-6; type: cell-based; conditions: minimum BLI concentration inhibiting growth with tigemonam 4 μg/mL; tested up to 40 μg/mL
# KP1009 CTX-M-15 [18] = assay: Tigemonam potentiation (MPC@4), strain KP1009 CTX-M-15; conditions: minimum BLI concentration inhibiting growth with tigemonam 4 μg/mL; tested up to 40 μg/mL
# ec302 TEM-10 [19] = assay: Aztreonam potentiation (MPC@4), strain ec302 TEM-10; conditions: minimum BLI concentration inhibiting growth with aztreonam 4 μg/mL; tested up to 40 μg/mL
# KP1004 KPC-2 [20] = assay: Aztreonam potentiation (MPC@4), strain KP1004 KPC-2
# KP1004 KPC-2 [21] = assay: Biapenem potentiation (MPC@1), strain KP1004 KPC-2; type: cell-based; conditions: minimum BLI concentration inhibiting growth with biapenem 1 μg/mL; tested up to 40 μg/mL
# Protocol: as §1
# AB1054 OXA-23 = assay: Meropenem potentiation (MPC@8), strain AB1054 OXA-23; type: cell-based, Acinetobacter baumannii
# KP1010 SHV-12 [22] = assay: Tigemonam potentiation (MPC@4), strain KP1010 SHV-12; conditions: minimum BLI concentration inhibiting growth with tigemonam 4 μg/mL; tested up to 40 μg/mL
# PAM1154/KPC-2 = assay: Biapenem potentiation MPC64 in PAM1154/KPC-2 (efflux deficient, lacks MexAB-OprM); type: cell-based, Pseudomonas aeruginosa
# Protocol: (§2) Efflux of BLIs from Pseudomonas aeruginosa by the MexAB-OprM efflux pump was also evaluated. The plasmid expressing the gene encoding KPC-2 was introduced into two strains of P. aeruginosa, PAM1032 and PAM 1154 that overexpressed or lacked MexAB-OprM, respectively. […] Potency of BLIs to potentiate biapenem in these strains was determined.
# [23] = biological target: purified class A, C and D enzymes (β-lactamases) (Enterobacter cloacae, UniProt P05364); assay: biochemical; type: biochemical
# biochemical = type: biochemical
# [24] = biological target: T3, purified class A, C and D enzymes (β-lactamases) (Pseudomonas aeruginosa, UniProt P24735); assay: biochemical; type: biochemical
# T3 construct: rows headed: Ki (Pa-AmpC, NCF), uM; other: purified Pa-AmpC; nitrocefin (NCF) as reporter substrate
# PAM1032/KPC-2 = assay: Biapenem potentiation MPC64 in PAM1032/KPC-2 (efflux proficient, overexpresses MexAB-OprM); type: cell-based, Pseudomonas aeruginosa
# Protocol: as §2
# [25] = minimum BLI concentration inhibiting growth with aztreonam 4 μg/mL, tested up to 40 μg/mL
# purified class A, C and D enzymes (β-lactamases) (Escherichia coli, UniProt Q9L5C7), sequence (Q9L5C7 entry or part of it): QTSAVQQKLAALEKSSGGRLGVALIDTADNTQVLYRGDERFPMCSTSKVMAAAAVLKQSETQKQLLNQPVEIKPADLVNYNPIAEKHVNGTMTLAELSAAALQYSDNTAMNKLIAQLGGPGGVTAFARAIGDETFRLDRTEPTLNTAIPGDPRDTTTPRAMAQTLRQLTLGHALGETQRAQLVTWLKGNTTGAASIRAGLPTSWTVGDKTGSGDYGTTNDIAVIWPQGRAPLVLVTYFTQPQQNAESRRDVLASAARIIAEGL
# T1 sequence (Q9L4P2 whole entry): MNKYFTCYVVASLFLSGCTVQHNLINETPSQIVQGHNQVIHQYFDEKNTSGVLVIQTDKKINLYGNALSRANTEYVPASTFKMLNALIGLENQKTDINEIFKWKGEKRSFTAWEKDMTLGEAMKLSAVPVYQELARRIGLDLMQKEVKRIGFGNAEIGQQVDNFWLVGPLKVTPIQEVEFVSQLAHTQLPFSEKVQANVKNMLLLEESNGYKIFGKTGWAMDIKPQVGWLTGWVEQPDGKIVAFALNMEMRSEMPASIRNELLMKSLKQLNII
# purified class A, C and D enzymes (β-lactamases) (Enterobacter cloacae, UniProt P05364), sequence (P05364 21-381): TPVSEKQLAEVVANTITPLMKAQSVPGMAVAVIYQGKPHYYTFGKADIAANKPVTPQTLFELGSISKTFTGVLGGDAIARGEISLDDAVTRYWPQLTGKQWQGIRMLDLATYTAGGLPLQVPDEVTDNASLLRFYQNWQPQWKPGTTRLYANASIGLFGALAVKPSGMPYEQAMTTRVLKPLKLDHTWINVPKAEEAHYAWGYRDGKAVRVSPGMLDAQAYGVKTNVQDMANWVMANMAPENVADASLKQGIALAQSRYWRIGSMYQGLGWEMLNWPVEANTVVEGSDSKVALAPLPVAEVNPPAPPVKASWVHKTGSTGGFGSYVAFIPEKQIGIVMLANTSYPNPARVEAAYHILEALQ
# T3 sequence (P24735 whole entry): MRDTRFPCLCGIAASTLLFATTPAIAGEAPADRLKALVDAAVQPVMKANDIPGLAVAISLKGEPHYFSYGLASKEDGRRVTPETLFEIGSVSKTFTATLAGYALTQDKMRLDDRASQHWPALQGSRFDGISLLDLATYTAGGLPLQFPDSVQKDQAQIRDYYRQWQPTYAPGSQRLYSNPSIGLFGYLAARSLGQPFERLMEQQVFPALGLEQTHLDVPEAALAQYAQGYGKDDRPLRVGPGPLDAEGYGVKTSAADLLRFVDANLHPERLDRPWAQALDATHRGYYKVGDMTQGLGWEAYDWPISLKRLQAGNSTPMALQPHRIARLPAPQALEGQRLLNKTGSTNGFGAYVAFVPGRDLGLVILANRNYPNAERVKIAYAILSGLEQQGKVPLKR
compound,measurement,setting,value
"Disodium; 4,4-dihydroxy-8-(1H-triazol-4-ylmethoxy)-5-oxa-4-boranuidabicyclo[4.4.0]deca-1(6),7,9-triene-7-carboxylate [Compound 24]",BPM MPC1 OXA-48 KP1086,KP1086 OXA-48,X (X = MPC@1 ≤ 5 μg/mL)
same,TIG MPC4 ECL1002,ECL1002 [1],X (X = MPC@4 ≤ 5 μg/mL)
same,AZT MPC4 ECL1002,ECL1002 [2],X (X = MPC@4 ≤ 5 μg/mL)
same,AZT MPC4 CTX-M-15 KP1009,KP1009 CTX-M-15 [3],X (X = MPC@4 ≤ 5 μg/mL)
same,TIG MPC4 SHV-5 ec308,ec308 SHV-5 [4],X (X = MPC@4 ≤ 5 μg/mL)
same,TIG MPC4 CTX-M-14 KP1005,"KP1005 CTX-M-14 [5]; minimum BLI concentration inhibiting growth with tigemonam 4 μg/mL, tested up to 40 μg/mL",Z (Z = MPC@4 > 20 μg/mL)
same,AZT MPC4 SHV-5 ec308,ec308 SHV-5 [6],X (X = MPC@4 ≤ 5 μg/mL)
same,AZT MPC4 CMY-6 EC1010,EC1010 CMY-6 [7]; [25],X (X = MPC@4 ≤ 5 μg/mL)
same,AZT MPC4 CTX-M-14 KP1005,KP1005 CTX-M-14 [8],X (X = MPC@4 ≤ 5 μg/mL)
same,MPM MPC8 AB1053 OXA-72,AB1053 OXA-72,X (X = MPC@1 ≤ 5 μg/mL)
same,AZT MPC4 SHV-12 KP1010,KP1010 SHV-12 [9]; [25],X (X = MPC@4 ≤ 5 μg/mL)
same,Ki,"[10]; purified KPC-2, nitrocefin (NCF) as reporter substrate",< 100 nM
same,Ki,"[11]; purified OXA-48, nitrocefin (NCF) as reporter substrate",< 100 nM
same,Ki,[12],< 100 nM
same,Ki,"[13]; purified SHV-12; nitrocefin (NCF) as reporter substrate; read-out: Ki (SHV-12, NCF)",< 100 nM
same,Ki,[14],< 100 nM
same,Ki,"[15]; purified CTX-M-14, nitrocefin (NCF) as reporter substrate",< 100 nM
same,TIG MPC4 TEM-10 ec302,ec302 TEM-10 [16],X (X = MPC@4 ≤ 5 μg/mL)
same,TIG MPC4 CMY-6 EC1010,EC1010 CMY-6 [17],X (X = MPC@4 ≤ 5 μg/mL)
same,TIG MPC4 CTX-M-15 KP1009,KP1009 CTX-M-15 [18],X (X = MPC@4 ≤ 5 μg/mL)
same,AZT MPC4 TEM-10 ec302,ec302 TEM-10 [19],X (X = MPC@4 ≤ 5 μg/mL)
same,AZT MPC4 KPC-2 KP1004,KP1004 KPC-2 [20]; [25],X (X = MPC@4 ≤ 5 μg/mL)
same,BPM MPC1 KP1004 KPC-2,KP1004 KPC-2 [21],X (X = MPC@1 ≤ 5 μg/mL)
same,MPM MPC8 AB1054 OXA-23,"AB1054 OXA-23; minimum BLI concentration inhibiting growth with meropenem 8 μg/mL, tested up to 20 μg/mL",X (X = MPC@1 ≤ 5 μg/mL)
same,TIG MPC4 SHV-12 KP1010,KP1010 SHV-12 [22],X (X = MPC@4 ≤ 5 μg/mL)
"O=C([O-])c1nccc2c1O[B-](O)(O)CC2.[Na+].[Na+] [Compound 6, DISODIUM; 4,4-DIHYDROXY-5-OXA-8-AZA-4-BORANUIDABICYCLO[4.4.0]DECA-1(6),7,9-TRIENE-7-CARBOXYLATE]",BPM MPC1 OXA-48 KP1086,KP1086 OXA-48,X (X = MPC@1 ≤ 5 μg/mL)
same,AZT MPC4 ECL1002,ECL1002 [2],X (X = MPC@4 ≤ 5 μg/mL)
same,AZT MPC4 CTX-M-15 KP1009,KP1009 CTX-M-15 [3],X (X = MPC@4 ≤ 5 μg/mL)
same,TIG MPC4 CTX-M-14 KP1005,KP1005 CTX-M-14 [5],Y (key: X = MPC@4 ≤ 5 μg/mL; Y = 5 μg/mL < MPC@4 ≤ 20 μg/mL; Z = MPC@4 > 20 μg/mL)
same,AZT MPC4 SHV-5 ec308,ec308 SHV-5 [6],Y (Y = 5 μg/mL < MPC@4 ≤ 20 μg/mL)
same,AZT MPC4 CMY-6 EC1010,EC1010 CMY-6 [7],X (key: X = MPC@4 ≤ 5 μg/mL; Y = 5 μg/mL < MPC@4 ≤ 20 μg/mL; Z = MPC@4 > 20 μg/mL)
same,PAM1154/KPC-2 Biapenem MPC64,PAM1154/KPC-2,0.3
same,MPM MPC8 AB1053 OXA-72,AB1053 OXA-72,X (X = MPC@1 ≤ 5 μg/mL)
same,AZT MPC4 SHV-12 KP1010,KP1010 SHV-12 [9],X (key: X = MPC@4 ≤ 5 μg/mL; Y = 5 μg/mL < MPC@4 ≤ 20 μg/mL; Z = MPC@4 > 20 μg/mL)
same,"Ki (KPC-2, NCF), uM",[10],X (key: X = Ki ≤ 0.1 μM; Y = 0.1 μM < Ki ≤ 1 μM; Z = Ki > 1 μM)
same,"Ki (P99, NCF), uM",[23],X (key: X = Ki ≤ 0.1 μM; Y = 0.1 μM < Ki ≤ 1 μM; Z = Ki > 1 μM)
same,"Ki (OXA-48, NCF), uM",[11],X (key: X = Ki ≤ 0.1 μM; Y = 0.1 μM < Ki ≤ 1 μM; Z = Ki > 1 μM)
same,Ki,biochemical,< 100 nM
same,Ki,[24],< 100 nM
same,Ki,"[13]; read-out: Ki (SHV-12, NCF); purified SHV-12; nitrocefin (NCF) as reporter substrate",< 100 nM
same,"Ki (CTX-M-14, NCF), uM",[15],X (key: X = Ki ≤ 0.1 μM; Y = 0.1 μM < Ki ≤ 1 μM; Z = Ki > 1 μM)
same,PAM1032/KPC-2 Biapenem MPC64,PAM1032/KPC-2,5
same,AZT MPC4 TEM-10 ec302,ec302 TEM-10 [19],X (X = MPC@4 ≤ 5 μg/mL)
same,AZT MPC4 KPC-2 KP1004,KP1004 KPC-2 [20],X (key: X = MPC@4 ≤ 5 μg/mL; Y = 5 μg/mL < MPC@4 ≤ 20 μg/mL; Z = MPC@4 > 20 μg/mL)
same,BPM MPC1 KP1004 KPC-2,KP1004 KPC-2 [21],X (X = MPC@1 ≤ 5 μg/mL)
same,MPM MPC8 AB1054 OXA-23,AB1054 OXA-23,X (key: X = MPC@1 ≤ 5 μg/mL; Y = 5 μg/mL < MPC@1 ≤ 20 μg/mL; Z = MPC@1 > 20 μg/mL)
